ChEMBL document CHEMBL3804830, “Efficient synthesis of new antiproliferative steroidal hybrids using the molecular hybridization approach” (Eur J Med Chem, 2016)

Assays:
SH-SY5Y [1] = test: Induction of apoptosis in human SH-SY5Y cells assessed as late apoptotic cells at 1.25 uM after 24 hrs by Annexin V-FITC/propidium iodide staining based flow cytometry (reference value: 5.7%); type: functional
SH-SY5Y [2] = test: Cell cycle arrest in human SH-SY5Y assessed as accumulation at G2/M phase after 24 hrs by propidium iodide staining based flow cytometry; type: functional
SH-SY5Y [3] = test: Cell cycle arrest in human SH-SY5Y assessed as accumulation at G2/M phase at 5 uM after 24 hrs by propidium iodide staining based flow cytometry (reference value: 14.53%); type: functional
SH-SY5Y [4] = test: Induction of apoptosis in human SH-SY5Y cells assessed as viable cells at 5 uM after 24 hrs by Annexin V-FITC/propidium iodide staining based flow cytometry (reference value: 88.2%); type: functional; conditions: read-out: Activity
SH-SY5Y [5] = test: Induction of apoptosis in human SH-SY5Y cells assessed as viable cells at 20 uM after 24 hrs by Annexin V-FITC/propidium iodide staining based flow cytometry (reference value: 88.2%); type: functional; conditions: read-out: Activity
SH-SY5Y [6] = test: Induction of apoptosis in human SH-SY5Y cells assessed as late apoptotic cells at 20 uM after 24 hrs by Annexin V-FITC/propidium iodide staining based flow cytometry (reference value: 5.7%); type: functional
SH-SY5Y [7] = test: Induction of apoptosis in human SH-SY5Y cells assessed as necrotic cells at 20 uM after 24 hrs by Annexin V-FITC/propidium iodide staining based flow cytometry (reference value: 2.9%); type: functional
SH-SY5Y [8] = test: Induction of apoptosis in human SH-SY5Y cells assessed as late apoptotic cells at 5 uM after 24 hrs by Annexin V-FITC/propidium iodide staining based flow cytometry (reference value: 5.7%); type: functional
SH-SY5Y [9] = test: Induction of apoptosis in human SH-SY5Y cells assessed as late apoptotic cells at 10 uM after 24 hrs by Annexin V-FITC/propidium iodide staining based flow cytometry (reference value: 5.7%); type: functional
SH-SY5Y [10] = test: Antiproliferative activity against human SH-SY5Y cells assessed as cell growth inhibition after 72 hrs by MTT assay; type: functional, cell-based
SH-SY5Y [11] = test: Cell cycle arrest in human SH-SY5Y assessed as accumulation at G2/M phase at 2.5 uM after 24 hrs by propidium iodide staining based flow cytometry (reference value: 14.53%); type: functional
SH-SY5Y [12] = test: Cell cycle arrest in human SH-SY5Y assessed as accumulation at G0/G1 phase at 2.5 uM after 24 hrs by propidium iodide staining based flow cytometry (reference value: 61.80%); type: functional
[13] = Antiproliferative activity against human U87 cells assessed as cell growth inhibition after 72 hrs by MTT assay; type: functional, cell-based, U-87MG ATCC; conditions: U-87 MG
[14] = Antiproliferative activity against human MGC803 cells assessed as cell growth inhibition after 72 hrs by MTT assay; type: functional, cell-based; conditions: MGC-803, 72 h
SH-SY5Y [15] = test: Induction of apoptosis in human SH-SY5Y cells assessed as necrotic cells at 5 uM after 24 hrs by Annexin V-FITC/propidium iodide staining based flow cytometry (reference value: 2.9%); type: functional
SH-SY5Y [16] = test: Induction of apoptosis in human SH-SY5Y cells assessed as reduction in mitochondrial membrane potential at 5 uM after 24 hrs by JC-1 staining based flow cytometry (reference value: 5.1%); type: functional; set-up: scale not given: the % may be the effect or the level left
SH-SY5Y [17] = test: Induction of apoptosis in human SH-SY5Y cells assessed as reduction in mitochondrial membrane potential at 10 uM after 24 hrs by JC-1 staining based flow cytometry (reference value: 5.1%); type: functional; set-up: scale not given: the % may be the effect or the level left
SH-SY5Y [18] = test: Induction of apoptosis in human SH-SY5Y cells assessed as reduction in mitochondrial membrane potential after 24 hrs by JC-1 staining based flow cytometry; type: functional, cell-based
SH-SY5Y [19] = test: Induction of apoptosis in human SH-SY5Y cells assessed as early apoptotic cells at 20 uM after 24 hrs by Annexin V-FITC/propidium iodide staining based flow cytometry (reference value: 3.3%); type: functional
SH-SY5Y [20] = test: Induction of apoptosis in human SH-SY5Y cells after 24 hrs by Annexin V-FITC/propidium iodide staining based flow cytometry; type: functional, cell-based
SH-SY5Y [21] = test: Cell cycle arrest in human SH-SY5Y assessed as accumulation at G0/G1 phase at 1.25 uM after 24 hrs by propidium iodide staining based flow cytometry (reference value: 61.80%); type: functional
SH-SY5Y [22] = test: Induction of apoptosis in human SH-SY5Y cells assessed as necrotic cells at 2.5 uM after 24 hrs by Annexin V-FITC/propidium iodide staining based flow cytometry (reference value: 2.9%); type: functional
MCF7 = test: cells; conditions: Homo sapiens, MCF7, 72 h
Description: Antiproliferative activity against human MCF7 cells assessed as cell growth inhibition after 72 hrs by MTT assay

SH-SY5Y [23] = test: Cell cycle arrest in human SH-SY5Y assessed as accumulation at S phase at 1.25 uM after 24 hrs by propidium iodide staining based flow cytometry (reference value: 21.34%); type: functional
SH-SY5Y [24] = test: Cell cycle arrest in human SH-SY5Y assessed as accumulation at G0/G1 phase at 5 uM after 24 hrs by propidium iodide staining based flow cytometry (reference value: 61.80%); type: functional
SH-SY5Y [25] = test: Induction of apoptosis in human SH-SY5Y cells assessed as viable cells at 10 uM after 24 hrs by Annexin V-FITC/propidium iodide staining based flow cytometry (reference value: 88.2%); type: functional; conditions: read-out: Activity
SH-SY5Y [26] = test: Cell cycle arrest in human SH-SY5Y assessed as accumulation at G2/M phase at 1.25 uM after 24 hrs by propidium iodide staining based flow cytometry (reference value: 14.53%); type: functional
SH-SY5Y [27] = test: Cell cycle arrest in human SH-SY5Y assessed as accumulation at S phase at 5 uM after 24 hrs by propidium iodide staining based flow cytometry (reference value: 21.34%); type: functional
SH-SY5Y [28] = test: Induction of apoptosis in human SH-SY5Y cells assessed as necrotic cells at 10 uM after 24 hrs by Annexin V-FITC/propidium iodide staining based flow cytometry (reference value: 2.9%); type: functional
[29] = biological target: Lysine-specific histone demethylase 1A (Homo sapiens, UniProt O60341); test: Inhibition of recombinant LSD1 (157 to 852 amino acids) (unknown origin) expressed in Escherichia coli BL21(DE) using H3K4me2 substrate
SH-SY5Y [30] = test: Induction of apoptosis in human SH-SY5Y cells assessed as early apoptotic cells at 5 uM after 24 hrs by Annexin V-FITC/propidium iodide staining based flow cytometry (reference value: 3.3%); type: functional
SH-SY5Y [31] = test: Cell cycle arrest in human SH-SY5Y assessed as accumulation at S phase at 2.5 uM after 24 hrs by propidium iodide staining based flow cytometry (reference value: 21.34%); type: functional
[32] = Antiproliferative activity against human EC109 cells assessed as cell growth inhibition after 72 hrs by MTT assay; type: functional, cell-based; conditions: ECa-109, 72 h
SH-SY5Y [33] = test: Induction of apoptosis in human SH-SY5Y cells assessed as early apoptotic cells at 1.25 uM after 24 hrs by Annexin V-FITC/propidium iodide staining based flow cytometry (reference value: 3.3%); type: functional
SH-SY5Y [34] = test: Induction of apoptosis in human SH-SY5Y cells assessed as late apoptotic cells at 2.5 uM after 24 hrs by Annexin V-FITC/propidium iodide staining based flow cytometry (reference value: 5.7%); type: functional
SH-SY5Y [35] = test: Induction of apoptosis in human SH-SY5Y cells assessed as viable cells at 1.25 uM after 24 hrs by Annexin V-FITC/propidium iodide staining based flow cytometry (reference value: 88.2%); type: functional; conditions: read-out: Activity
SH-SY5Y [36] = test: Induction of apoptosis in human SH-SY5Y cells assessed as early apoptotic cells at 2.5 uM after 24 hrs by Annexin V-FITC/propidium iodide staining based flow cytometry (reference value: 3.3%); type: functional
SH-SY5Y [37] = test: Induction of apoptosis in human SH-SY5Y cells assessed as viable cells at 2.5 uM after 24 hrs by Annexin V-FITC/propidium iodide staining based flow cytometry (reference value: 88.2%); type: functional; conditions: read-out: Activity
SH-SY5Y [38] = test: Induction of apoptosis in human SH-SY5Y cells assessed as reduction in mitochondrial membrane potential at 2.5 uM after 24 hrs by JC-1 staining based flow cytometry (reference value: 5.1%); type: functional; set-up: scale not given: the % may be the effect or the level left
SH-SY5Y [39] = test: Induction of apoptosis in human SH-SY5Y cells assessed as early apoptotic cells at 10 uM after 24 hrs by Annexin V-FITC/propidium iodide staining based flow cytometry (reference value: 3.3%); type: functional
SH-SY5Y [40] = test: Induction of apoptosis in human SH-SY5Y cells assessed as necrotic cells at 1.25 uM after 24 hrs by Annexin V-FITC/propidium iodide staining based flow cytometry (reference value: 2.9%); type: functional

In the case of `C[C@]12CC[C@H](OC(=O)Cn3cc(CN4C(=O)C(=O)c5c(Cl)ccc(Cl)c54)nn3)CC1=CC[C@@H]1[C@@H]2CC[C@]2(C)C(=O)CC[C@@H]12`, the Activity (SH-SY5Y [1]) is reported as 8.4%, the Activity (SH-SY5Y [2]) is reported as “Dose-dependent effect” and the Activity (SH-SY5Y [3]) is reported as 27.74%. For the same compound, the viability at 5 µM (SH-SY5Y [4]) was 32.4%, the viability at 20 µM (SH-SY5Y [5]) was 1% and the Activity (SH-SY5Y [6]) was 65.7%. It also gave an Activity (SH-SY5Y [7]) of 0.8%, an Activity (SH-SY5Y [8]) of 41.4% and an Activity (SH-SY5Y [9]) of 59.7%. It also gave an IC50 (SH-SY5Y [10]) of 4.06 µM, an Activity (SH-SY5Y [11]) of 23.88% and an Activity (SH-SY5Y [12]) of 45.36%. It also gave an IC50 [13] of 9.57 µM, an IC50 [14] of 5.95 µM and an Activity (SH-SY5Y [15]) of 7.4%. The Activity (SH-SY5Y [16]) was 29.8%, the Activity (SH-SY5Y [17]) was 40.1% and the Activity (SH-SY5Y [18]) was “Dose-dependent effect”. The Activity (SH-SY5Y [19]) was 32.6%, the Activity (SH-SY5Y [20]) was “Dose-dependent effect” and the Activity (SH-SY5Y [21]) was 50.31%. For the same compound, the Activity (SH-SY5Y [22]) was 1.6%, the IC50 (MCF7) was 32.2 µM and the Activity (SH-SY5Y [23]) was 24.78%. It also gave an Activity (SH-SY5Y [24]) of 52.33%, a viability at 10 µM (SH-SY5Y [25]) of 0.8% and an Activity (SH-SY5Y [26]) of 21.31%. It also gave an Activity (SH-SY5Y [27]) of 12.48%, an Activity (SH-SY5Y [28]) of 0.5% and an IC50 [29] of 3.18 µM. The Activity (SH-SY5Y [30]) was 18.9%, the Activity (SH-SY5Y [31]) was 23.48% and the IC50 [32] was 20.8 µM. For the same compound, the Activity (SH-SY5Y [33]) was 6.1%, the Activity (SH-SY5Y [34]) was 6.4% and the viability at 1.25 µM (SH-SY5Y [35]) was 80.3%. The Activity (SH-SY5Y [36]) was 10.6%, the viability at 2.5 µM (SH-SY5Y [37]) was 81.4% and the Activity (SH-SY5Y [38]) was 9%. For the same compound, the Activity (SH-SY5Y [39]) was 39% and the Activity (SH-SY5Y [40]) was 5.3%.
